Laboratory results reported in patent US12667604B2, “Combination therapy with controlled-release CNP agonists” (ASCENDIS PHARMA GROWTH DISORDERS A/S, priority 2016, dated 2026).

Assays:
Fgfr3Y367C/+ mice = assay: Achondroplasia phenotype in Fgfr3Y367C/+ mice (whole body autoradiography, bone lengths); assay type: in vivo; conditions: dosing from day 1 of birth for 15 days; single agent or combination
Experimental: Animals are sacrificed on day 16 and tissues fixed for histologic or immunohistochemical analysis. Either compound is administered alone or in combination. The dose levels employed for Rosuvastatin are 0.25, 0.5, 1.0 and 2.0 mg/kg. […] The ratios ranges from 1:1-24:1
Reversion of phenotypical features are assessed using whole body autoradiography. The animals are placed on their right side, with the left hind leg more forward than the right, to allow both hind legs to be visible on the X-ray. Bones obtained at necropsy include femur, tibia, humerus, ulna, lumbar vertebra segment L 4-6 and are measured with a caliper.

[1] = test system: hypophysectomized (HYPOX) SPF Sprague Dawley rats; assay: Femur and tibia length measured with a caliper in hypophysectomized rats; assay type: in vivo, rat; conditions: Somatropin alone, daily s.c.; relative to the vehicle group; day 30
Experimental: (§1) Method: This study was performed in order to test and compare the effect of Lys26 CNP-38 PEG4×10 kDa conjugate, Somatropin and combinations of the two compounds in an animal model relevant for investigating treatment of growth deficiency. The Somatropin (human growth hormone, hGH) was a United States Pharmacopeia (USP) Reference Standard and was prepared according to supplier instructions. Lys26 CNP-38 PEG4×10 kDa conjugate and Somatropin were administered alone or in combination via subcutaneous injection to hypophysectomized (HYPOX) SPF Sprague Dawley rats for a total of 29 days. The animals were dosed daily with Somatropin or vehicle, and weekly with Lys26 CNP-38 PEG4×10 kDa conjugate (at two different sites in animals receiving both test items on days 1, 8, 15, 22, and 29). The dose levels employed for Lys26 CNP-38 PEG4×10 kDa conjugate were 0.3, 1.0, and 2.0 mg/kg. Somatropin was employed at […] with a concentration of 10 μg/mL (˜8-10 μg/kg with animal weights between 100-120 g during the study period). The animals were weighed predose and once daily during the dosing period. […] Animals were sacrificed on day 30, and femur and tibia were trimmed and their length measured using a caliper. Hereafter, right tibia was fixed and processed for histologic and histomorphometric analysis.

[2] = test system: hypophysectomized (HYPOX) SPF Sprague Dawley rats; assay: Histologic evaluation of HE stained right tibia, width of the endochondral/ossification zone; assay type: in vivo, rat
Experimental: as §1

[3] = test system: hypophysectomized (HYPOX) SPF Sprague Dawley rats; assay: Histomorphometric measurement of proliferative zone width of right tibia growth plate; assay type: in vivo, rat; conditions: Somatropin alone versus control (vehicle)
Experimental: as §1

[4] = test system: hypophysectomized (HYPOX) SPF Sprague Dawley rats; assay: Body weight gain in hypophysectomized rats; assay type: in vivo, rat
Experimental: as §1

| Compound | reversal of the achondroplasic phenotype (Fgfr3Y367C/+ mice) | increase in femur length [1] [mm] | increase in tibia length [1] [mm] | Number of animals, width of endochondral/ossification zone Normal (grade 0) ([2]; Somatropin alone) | width of the endochondral/ossification zone, histologic evaluation ([2]; compared to vehicle or to conjugate alone) | width of the proliferative zone [3] | Average BWG (g) (±SE) ([4]; body weight gain day 0 (predose) to day 28, Somatropin alone, daily s.c. 10 μL/animal of 10 μg/mL (~8-10 μg/kg)) | body weight gain ([4]; compared to vehicle treated group) |
| --- | --- | --- | --- | --- | --- | --- | --- | --- |
| CC(C)c1nc(N(C)S(C)(=O)=O)nc(-c2ccc(F)cc2)c1/C=C/[C@@H](O)C[C@@H](O)CC(=O)O [Rosuvastatin] | beneficial effect on reversal of the achondroplasic phenotype is observed | – | – | – | – | – | – | – |
| Somatropin: human growth hormone, hGH; United States Pharmacopeia (USP) Reference Standard | – | −0.04±0.08 | 0.55±0.17 | 9 | did not differ from background (vehicle) | not different from control (vehicle) animals | 4.44 (±0.94) g | Significant body weight gains |
